Patent publication US12616753B2, “HSP70 inhibitors and methods of using same” (THE WISTAR INSTITUTE, priority 2020, dated 2026)

Columns and labels:
MC38 cells [1] = assay: Matrigel invasion assay; type: cell-based, mouse; details: low doses, 24 hours
Description: (§1) FIG. 24A: MC38 cells were subjected to invasion assays using BioCoat Matrigel transwells in the presence of the indicated concentrations of AP-4-139B. 24 hours later, cells were fixed and stained with Crystal Violet. Shown are representative images taken from 8 random fields of view per well. Scale bar=100 μm. FIG. 24B: Quantification of FIG. 24A *** p<0.001. FIG. 24C: Schematic representation of the metastasis assay. 4×10^5 MC38 cells were injected into the tail vein of 8-10 week old male C57Bl/6 mice. Mice were treated with i.p. injection of 10 mg/kg AP-4-139B every 48 hours. After 3 weeks, the lungs of mice were formalin fixed and H&E stained, and assessed for the presence of metastatic nodules. FIG. 24D: Representative images of lung metastases (black arrows) from C57Bl/6 mice injected with MC38 cells in the tail vein, followed by treatment with vehicle or AP-4-139B. Scale bar=250 μm. FIG. 24E: Quantification of FIG. 24D. n=5 mice per group. * p<0.05.
Matrigel invasion assays were carried out using 24-well Corning® BioCoat™ Matrigel Invasion Chambers with an 8.0 μm PET membrane (#354480). Transwells were first rehydrated with serum free DMEM for 2 hours at 37° C. […] Number of invaded cells per field (n=8 random fields of view per transwell) were quantified with ImageJSoftware (NIH), normalized to live cells, and expressed as mean±SEM.

MC38 cells [2] = assay: Cell death of MC38 cells pre-treated for vaccination (Trypan Blue staining); type: cell-based, mouse; details: 10 μM, 48 h
Description: For in vivo metastasis assays, 8-10 week old male C57Bl/6 mice were injected with 4×10^5 MC38 cells. Mice were then treated with either vehicle or 10 mg/kg AP-4-139B every 48 hours for 3 weeks. At the end of the study, mice were euthanized, lungs were harvested and fixed in formalin for analysis of lung tumor nodules by H&E. For anti-tumor vaccination studies, MC38 cells were treated with 10 μM AP-4-139B for 48 h, resulting in approximately 20% cell death (as assessed by Trypan Blue staining). 2×10^6 pre-treated MC38 cells or PBS was inoculated subcutaneously into the left flank of 8-10 week old male C57BL/6 mice. Ten days later, mice were challenged on the right flank with 5×10^5 live MC38 cells, and tumor growth and incidence were monitored 3 times per week. The absence of tumors was scored as an indication for efficient antitumor vaccination.

Pharmacokinetics in mice = type: in vivo; details: 10 mg/kg
Description: FIGS. 8A-8E show HSP70 inhibition is effective on mouse CRC cell lines. FIG. 8A: Association of HSPA1A gene expression and survival rate of patients with colorectal adenocarcinoma (COAD). Patient data was gathered from USCS Xena platform (GDC-TCGA COAD; n=435). Log-rank test was used to determine significance. p=0.0004. FIG. 8B: Association of HSPA1A gene expression and stage of COAD (n=440). Wilcoxon rank sum test was used to determine significance. * p<0.05, *** p<0.001. FIG. 8C: Body weights of mice injected with HT-29 tumor xenografts. Weights were measured at the start of the treatment to determine mouse toxicity. n.s. not significant, n=10 mice per group. FIG. 8D: H&E staining of livers and colons of mice injected with HT-29 tumor xenografts. Tissues were collected at the end of the study. FIG. 8E. Pharmacokinetic values of AP-4-139B in the liver, plasma, and brain from three CDI mice treated with 10 mg/kg of compound.

MC38 cells [3] = assay: In vivo metastasis assay (tail vein injection, C57Bl/6 mice); set-up: species or system mouse; details: 10 mg/kg every 48 hours, 3 weeks
Description: as §1, with “FIG. 24D: Representative images of lung metastases (black arrows) from C57Bl/6 mice injected with MC38 cells in the tail vein, followed by treatment with vehicle or AP-4-139B. Scale bar=250 μm.” left out
For in vivo metastasis assays, 8-10 week old male C57Bl/6 mice were injected with 4×10^5 MC38 cells. […] At the end of the study, mice were euthanized, lungs were harvested and fixed in formalin for analysis of lung tumor nodules by H&E. For anti-tumor vaccination studies, MC38 cells were treated with 10 μM AP-4-139B for 48 h, resulting in approximately 20% cell death (as assessed by Trypan Blue staining). […] Ten days later, mice were challenged on the right flank with 5×10^5 live MC38 cells, and tumor growth and incidence were monitored 3 times per week. […]

**Q.** What does the source list for `c1ccc(-c2cn3nc(CCCCCC[P+](c4ccccc4)(c4ccccc4)c4ccccc4)sc3n2)cc1` [AP-4-139B, Triphenyl(6-(6-phenylimidazo[2,1-b][1,3,4]thiadiazol-2-yl)hexyl)phosphonium bromide]?
**A.** tumor cell migration and invasion (MC38 cells [1]): sufficient to inhibit tumor cell migration and invasion; cell death of MC38 cells (MC38 cells [2]): approximately 20%; brain penetrance (Pharmacokinetics in mice): modest brain penetrance; half-life in plasma (Pharmacokinetics in mice): > five; half-life (Pharmacokinetics in mice; CDI, mouse, plasma): > 5 h; number of tumor nodules in the lung (MC38 cells [3]): markedly decreased number of tumor nodules in the lung
